Data published in ChEMBL document CHEMBL1201862, “PubChem BioAssay data set” (2004).
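Cells were grown in 96-well plates and exposed to each compound for 48 hours at five concentrations; endpoints were interpolated linearly between bracketing concentrations, or set to the highest concentration if not reached. GI50 = concentration required for 50% inhibition of growth.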 Active and inactive are the calls of the source. No stated cut-off is given here; in the data, active = GI50 up to about 1.1 µM and inactive = higher.

Columns and labels:
Assay in all cases: DTP human tumour cell line panel, 48 h
[1] = test system: LOX IMVI
[2] = test system: SW-620
[3] = test system: OVCAR-5
[4] = test system: M14
[5] = test system: NCI-H522
[6] = test system: HL-60
[7] = test system: A498
[8] = test system: HOP-92
[9] = test system: SF-295
[10] = test system: RXF 393
[11] = test system: SK-OV-3
[12] = test system: NCI-H226
[13] = test system: NCI-H460
[14] = test system: HT-29
[15] = test system: SF-539
[16] = test system: 786-0
[17] = test system: DU-145

Measured: GI50

CNC(=O)CN(CC(N)=O)C(N)=O
inactive: [1] > 100 µM | [2] > 100 µM | [3] > 100 µM | [4] > 100 µM | [5] > 100 µM | [6] > 100 µM | [7] > 100 µM | [8] > 100 µM | [9] > 100 µM | [10] > 100 µM | [11] > 100 µM | [12] > 100 µM | [13] > 100 µM | [14] > 100 µM | [15] > 100 µM | [16] > 100 µM

C[C@H](O)CCC(=O)c1ccoc1
inactive: [1] > 100 µM | [2] > 100 µM | [3] > 100 µM | [4] > 100 µM | [5] > 100 µM | [6] > 100 µM | [7] > 100 µM | [8] > 100 µM | [9] > 100 µM | [10] > 100 µM | [11] > 100 µM | [12] > 100 µM | [13] > 100 µM | [14] > 100 µM | [15] > 100 µM | [16] > 100 µM

CN(C)CCCN1CCc2c([nH]c3ccccc23)C1c1cccnc1 (stereo not drawn)
inactive: [1] > 100 µM | [2] > 100 µM | [3] > 100 µM | [4] > 100 µM | [5] > 100 µM | [6] > 100 µM | [7] > 100 µM | [8] 33.8 µM | [9] > 100 µM | [10] > 100 µM | [11] > 100 µM | [12] > 100 µM | [13] > 100 µM | [14] > 100 µM | [15] > 100 µM | [16] > 100 µM

Nc1n/c(=N\c2ccccc2)ss1
inactive: [1] 51.4 µM | [2] > 100 µM | [3] > 100 µM | [4] > 100 µM | [5] > 100 µM | [6] 19.9 µM | [7] > 100 µM | [8] > 100 µM | [9] > 100 µM | [10] > 100 µM | [11] > 100 µM | [12] > 100 µM | [13] > 100 µM | [14] > 100 µM | [15] > 100 µM | [16] > 100 µM

NS(=O)(=O)c1ccccc1C(=O)N/N=C(\c1nc2ccc([N+](=O)[O-])cc2[nH]c1=O)C(O)c1ccc([N+](=O)[O-])cc1 (stereo not drawn)
inactive: [1] 84.1 µM | [2] > 100 µM | [3] > 100 µM | [4] > 100 µM | [5] 10.6 µM | [6] > 100 µM | [7] > 100 µM | [8] > 100 µM | [9] > 100 µM | [10] > 100 µM | [11] > 100 µM | [17] > 100 µM | [12] > 100 µM | [13] > 100 µM | [14] > 100 µM | [15] 49.2 µM | [16] > 100 µM

CC(=O)OCCOCBr
inactive: [1] > 100 µM | [2] > 100 µM | [3] > 100 µM | [4] > 100 µM | [5] > 100 µM | [6] > 100 µM | [7] > 100 µM | [8] > 100 µM | [9] > 100 µM | [10] > 100 µM | [11] > 100 µM | [12] > 100 µM | [13] > 100 µM | [14] > 100 µM | [15] > 100 µM | [16] > 100 µM

CCOC(=O)CC(=O)Sc1ccccc1
inactive: [1] 12.8 µM | [2] 19.1 µM | [3] 36.4 µM | [4] 14.2 µM | [5] 11.8 µM | [6] 13.4 µM | [7] 15.8 µM | [8] 27.5 µM | [9] 29.6 µM | [10] 10.3 µM | [11] 24.5 µM | [12] 27.2 µM | [13] 24.7 µM | [14] 22.7 µM | [15] 14 µM | [16] 19.1 µM

O=C1C2C=CC(n3[nH]c(=O)n(Cc4ccccc4)c3=O)CC2C(=O)N1c1ccc(Br)cc1 (stereo not drawn)
inactive: [1] > 100 µM | [2] > 100 µM | [3] > 100 µM | [4] > 100 µM | [5] > 100 µM | [6] > 100 µM | [7] 56.8 µM | [8] > 100 µM | [9] > 100 µM | [10] > 100 µM | [11] > 100 µM | [12] > 100 µM | [13] > 100 µM | [14] > 100 µM | [15] > 100 µM | [16] > 100 µM

O=C(CC1(O)C(=O)Nc2ccccc21)c1ccc(Cl)cc1Cl (stereo not drawn)
inactive: [1] > 100 µM | [2] > 100 µM | [3] > 100 µM | [4] > 100 µM | [5] > 100 µM | [6] > 100 µM | [7] > 100 µM | [8] > 100 µM | [9] > 100 µM | [10] > 100 µM | [11] > 100 µM | [12] 71.6 µM | [14] > 100 µM | [15] > 100 µM | [16] > 100 µM

C=C(CN(C)C)C(=O)c1ccccc1Cl
inactive: [1] 17.8 µM | [2] 13.3 µM | [3] > 43 µM | [4] 19 µM | [5] 6.53 µM | [6] 5.5 µM | [7] 36.8 µM | [8] 17.1 µM | [9] > 65.3 µM | [10] 15.4 µM | [11] > 100 µM | [17] 36.4 µM | [12] > 67.3 µM | [13] 52.8 µM | [14] 19.1 µM | [15] 24.4 µM | [16] 19.9 µM

O=C(Nc1ccccc1-c1nn(C(=S)Nc2ccccc2)c(=S)n(C(=S)Nc2ccccc2)c1=O)C(F)(F)F
inactive: [1] 19.8 µM | [2] 23.9 µM | [3] 49.9 µM | [4] 20.4 µM | [5] 13.6 µM | [6] 20.9 µM | [7] 22.1 µM | [8] 12.8 µM | [9] 31.3 µM | [10] 34 µM | [11] > 87.3 µM | [12] 17.2 µM | [13] 21.3 µM | [14] 27.7 µM | [15] 36.1 µM | [16] 32.1 µM

O=c1[nH]c(=O)n(C2OC(CO)C(O)C2O)cc1OCC(F)(F)F (stereo not drawn)
inactive: [1] > 100 µM | [2] > 100 µM | [3] > 100 µM | [4] > 100 µM | [5] > 100 µM | [6] > 100 µM | [7] > 100 µM | [8] > 100 µM | [9] > 100 µM | [10] > 100 µM | [11] > 100 µM | [12] > 100 µM | [13] > 100 µM | [14] > 100 µM | [15] > 100 µM | [16] > 100 µM
